How the values were obtained:
Nt.CviPII-Protein A = experiment: Inhibition of the nicking activity of Nt.CviPII-Protein A fusion by heparin sodium salt; type: biochemical; conditions: 2.5 units Nt.CviPII-Protein A, 0.5 μg pUC19 DNA, NEBuffer 2, 40 minutes 37° C.
Procedure: In lanes 1-9, 2.5 units of NEFP was added to 0.5 μgs of plasmid DNA in the presence of increasing amounts of heparin (0.15-10 mg/ml). Digestion was not observed when 0.3 mg heparin/ml or greater amounts are present.
To determine the effect of heparin sodium salt on the inhibition of nicking activities of Nt.CviPII-Protein A fusion, reaction tubes containing 10, 5, 2.5, 1.25, 0.62, 0.31, 0.15, and 0 mg/ml heparin, sodium salt were added to a 50 μl reaction, consisting of 5 μl 10×NEBuffer 2, 2.5 units Nt.CviPII-Protein A (as described in Example 1(B)), and 0.5 μg pUC19 DNA and incubated for 40 minutes 37° C. 10 μl of DNA loading dye mix (5×) was added to the samples and were resolved on a 10% polyacrylamide gel. The gel was stained with SYBR® Green (Molecular Probes, Eugene, Oreg.) and scanned on a Typhoon® imager (GE Healthcare Bio-Sciences, Marlborough, Mass.).

[1] = tested on: antibody-Protein A/G complex; experiment: Effect of heparin on the antibody-Protein A/G complex (magnetic beads, SDS gel); type: binding; conditions: 0.125, 0.25, 0.5 and 1 mg/ml Heparin, 30 minutes, room temperature, Protein A/G magnetic beads with IgG, sodium salt
From the text: The numbers on the top indicate added heparin quantity in the reaction mgs/ml.
Antibody heavy and light chains that are bound to Protein A/G can be released by boiling and resolved on an SDS gel (B). Any antibody that was free in solution having been eluted or displaced by heparin from Protein A/G could be visualized without boiling (E).
To determine the effect of heparin on the formation of the antibody-Protein A/G complex, 5 mgs of immobilized and covalently cross-linked protein A/G magnetic beads were bound to 50 μgs of IgG molecules in a 50 μl reaction volume containing 1×PBST at room temperature for 30 minutes. The complex was washed 3 times using 1 ml of 1×PBST and incubated with 0.125, 0.25, 0.5 and 1 mg/ml Heparin for 30 minutes at room temperature in 25 μl total volume. The bead-bound (B) and unbound or bead elution (E) fractions were collected, SDS sample buffer (New England Biolabs, Ipswich, Mass.) was added and the samples were incubated at 95° C. for 5 minutes. Both B and E samples were resolved on tricine 10% acrylamide gel and stained for protein.

[2] = tested on: DNA-Nt.CviPII-Protein A complex; experiment: Gel-shift assay: dissociation of the DNA-Nt.CviPII-Protein A complex by heparin; type: binding; conditions: 3.2 μM Nt.CviPII-Protein A, NEBuffer 2 without magnesium, 50 μl
Procedure: Increasing amounts of heparin disrupts complex formation. Nicking activity is prevented by the absence of magnesium ions in the buffer.
From left to right: C is a control that is DNA in the absence of a NEFP or heparin. 0 is a control in which nicking endonuclease was added to DNA in the absence of heparin. The DNA-NEFP complex (DNA-Nt.CviPII-Protein A complex) is seen as a band at the top of the lane.
To establish that the inhibitory effect of heparin, sodium salt in untethered Nt.CviPII-Protein A fusion activity was due to selective dissociation between DNA substrate and fusion enzyme, a gel-shift assay was performed. Double stranded DNA substrate containing constant amounts of Nt.CviPII binding domains (CCA, 5′[…]-F, F=fluorescein (SEQ ID NO:9)) and 3.2 μM Nt.CviPII-Protein A fusion were combined in the presence of 1×NEBuffer 2 in the absence of magnesium for 30 minutes at room temperature to enable an enzyme-substrate complex to be formed. Increasing amounts of heparin, sodium salt (0, 2.3, 4.6, 1, 20, 42, 83, 166, 330 μg/ml) was added to the total 50 μl reaction volume. It was observed that a heparin concentration of greater than 0.2 mgs/ml (at least […]) enabled complete dissociation of the DNA-Nt.CviPII-Protein A complex as observed by the appearance of bands corresponding to DNA alone in a native 6% retardation gel (Thermo Fisher Scientific, Waltham, Mass.). […]

[3] = tested on: pBR322 circular double stranded DNA; experiment: Nicking activity of Protein G/A-gHNH fusion on plasmid DNA (agarose gel); type: biochemical; conditions: 50 μl, 37° C., 1 hour; for amount of fusion enzyme giving complete nicking/digestion of DNA substrate: 1 μg pBR322, NEBuffer 2 with manganese ions (1 mM) instead of magnesium
Procedure: The nicking activity of Protein G-HNH was compared to a second non-fused nicking endonuclease (Nt.CviPII) (2 units) in the same gel to determine a generalized and consistent cleavage profile and was also compared to a control in the lane labeled 0 containing no nicking endonuclease either fused or unfused.
Protein G/A-gHNH fusion nicking activity was tested on pBR322 circular double stranded DNA using NEBuffer 2 in which magnesium ions were replaced by the same amount of manganese ions (1 mM). 1 μg of plasmid was used with 0.03 to 2 units of Protein G/A-gHNH fusion enzyme in a two-fold serial dilutions (2, 1, 0.5, 0.25, 0.125, 0.06, 0.03 units) in a total volume of 50 μl incubated at 37° C. for 1 hour. 10 μl of DNA loading dye mix (5×) was added to the nicked DNA. The nicked DNA samples were resolved on a 1% agarose gel and visualized under UV light. DNA fragment size was estimated along with 2 log DNA ladder (New England Biolabs, Ipswich, Mass.) and positive control Nt.CviPII (2 units) of the non-fused nicking endonuclease, (New England Biolabs, Ipswich, Mass.) digested pBR322 DNA (FIG. 1B). […] A representative figure supporting this conclusion is provided in FIG. 1B for Protein G-gHNH fusions.

Molecule	heparin concentration giving total inhibition of nicking (no digestion observed) (Nt.CviPII-Protein A)	heparin concentration giving total inhibition of nicking (no digestion observed) (Nt.CviPII-Protein A; listed as Heparin sodium salt)	effect of heparin on antibody bound to Protein A/G ([1]; listed as Heparin)	effect of heparin on antibody bound to Protein A/G [1]	heparin concentration enabling complete dissociation of the DNA-Nt.CviPII-Protein A complex (parenthesis) [2]	heparin concentration enabling complete dissociation of the DNA-Nt.CviPII-Protein A complex ([2]; native 6% retardation gel)	amount of fusion enzyme giving complete nicking/digestion of DNA substrate [3]	amount of fusion enzyme giving complete nicking/digestion of DNA substrate ([3]; listed as Protein G-gHNH fusion)	amount of fusion enzyme giving partial digestion of DNA ([3]; 1 μg pBR322, NEBuffer 2 with manganese ions)
heparin, sodium salt	≥ 0.3 mg/mL	0.15 to 0.31 mg/mL	cannot dissociate Protein A/G-antibody reaction	no elution or displacement of antibody occurred	at least 10 ng/μl	greater than 0.2 mgs/ml	–	–	–
Protein G-gHNH: NEFP: Protein G-linker-gHNH nicking endonuclease (SEQ ID NO: 5) (protein) MKGETTTEAVDAATAEKVFKQYANDNGVDGEWTYDDATKTFTVTEKPEVIDASELTPAVTTYKLVINGKTLKGETTTEAVDAATAEKVFKQYANDNGVDGEWTYDDATKTFTVTEKPEVIDASELTPAVTTYKLVINGKTLKGETTTKAVDAETAEKAFKQYANDNGVDGVWTYDDATKTFTVTEGSATIVKKPLRPCCEFHCYNLTRERYCEEHRYKEKETQQDKNRYYDRFKRDKESTAFYRSKAWERLREQALMRDKGLCLHCKNNRKIKVADMVDHIIPIKVDPSLKLKLENLQSLCNPCHNRKTAEDKKKYG	–	–	–	–	–	–	0.25 units	greater than 0.06 units	0.03 units

From patent US20230123635A1, “Compositions and Methods for Detecting Molecular Targets on Chromosomal DNA” (New England Biolabs, Inc., priority 2020, published 2023)
